Results: US20250332173A1, “COMPOUNDS AND METHODS FOR MODULATING NUCLEIC ACID SPLICING” (REMIX THERAPEUTICS INC., priority 2021, published 2025)
Like-named read-outs stand apart in the source and are kept apart here.

Key:
Format in all cases: cell-based, human
HTT mRNA = assay: RT-qPCR splicing assay, HTT canonical junction (CJ) and alternative junction (AJ) mRNA; settings: Homo sapiens; for AC50: increase in HTT alternative junction (AJ) mRNA, read-out: HTT AJ AC50
Method in brief: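 24 h treatment, 37 °C/5% CO2; A673 or K562; 11-pt 3-fold series, top 10 uM final; DMSO ≤0.25%. Cell lysis with DNase I, then 1-step RT-qPCR. Housekeeping normalization: PPIA (A673), GAPDH or GUSB (K562).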

HTT = assay: HiBiT protein abundance assay, HTT HiBiT K562 cell line; settings: HiBiT K562 cell line, 24 hours, top dose 10 μM; read-out: Effect on protein abundance, HTT (IC50 category)
Method in brief: (§1)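 K562 knock-in lines with endogenous HiBiT-tagged target, 10,000 cells/well in IMDM + FBS, treated 24 h at 37° C with 10-point 3-fold dilutions (top 10 μM final; DMSO ≤0.25%). Lytic Nano-Glo HiBiT luminescence normalized to untagged K562 baseline and DMSO controls; IC50 = concentration giving 50% abundance via four-parameter fit.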

MYB = assay: HiBiT protein abundance assay, MYB HiBiT K562 cell line; settings: HiBiT K562 cell line, 24 hours, top dose 10 μM; read-out: Effect on protein abundance, MYB (IC50 category)
Method in brief: as §1

[1] = decrease in HTT canonical junction (CJ) mRNA, RT-qPCR, read-out: HTT CJ IC50
[2] = Table 5 panel, canonical junction qPCR, compound concentration having 50% response in CJ decrease, read-out: HTT IC50 (decrease in CJ mRNA levels)

## Cc1cn2cc(-c3ccc4c(=O)n(C5CCNC5)cc(C)c4c3)cc(C#N)c2n1 (stereo not shown) [Compound 442, 2-methyl-6-[4-methyl-1-oxo-2-(pyrrolidin-3-yl)isoquinolin-6-yl]imidazo[1,2-a]pyridine-8-carbonitrile]
HTT mRNA; [1]
  IC50: > 10000 nM
HTT mRNA; RT-qPCR
  AC50: > 10000 nM
HTT mRNA; [2]
  IC50: > 10000 nM
HTT
  IC50: > 10000 nM
MYB
  IC50: > 10000 nM

## Cc1cn2nc(-c3cc(F)c4c(=O)n([C@@H]5CCNC6(CC6)C5)ccc4c3)cc(C)c2n1 (single isomer, unassigned) [Compound 425]
HTT mRNA; [1]
  IC50: < 100 nM
HTT mRNA; RT-qPCR
  AC50: < 100 nM
HTT mRNA; [2]
  IC50: < 100 nM
HTT
  IC50: < 100 nM
MYB
  IC50: < 100 nM

## CN1C2C=C(c3ccc4c(=O)n(-c5ccc6nn(C)cc6c5)cnc4c3)CC1CC2 (stereo not shown) [Compound 161]
HTT mRNA; [1]
  IC50: > 10000 nM
HTT mRNA; RT-qPCR
  AC50: > 10000 nM
HTT mRNA; [2]
  IC50: > 10000 nM
HTT
  IC50: > 10000 nM
MYB
  IC50: > 10000 nM

## Cc1cn2cc(-c3cc(F)c4c(=O)n(C5CCNCC5)cc(C)c4c3)cc(F)c2n1 [Compound 461, 8-fluoro-6-{8-fluoro-2-methylimidazo[1,2-a]pyridin-6-yl}-4-methyl-2-(piperidin-4-yl)isoquinolin-1-one]
HTT mRNA; [1]
  IC50: 100 to 1000 nM
HTT mRNA; RT-qPCR
  AC50: 100 to 1000 nM
HTT mRNA; [2]
  IC50: 100 to 1000 nM
HTT
  IC50: < 100 nM
MYB
  IC50: < 100 nM

## Cc1cn2nc(-c3ccc4c(=O)n([C@H]5CCNC[C@H]5F)cnc4c3)cc(C)c2n1 [Compound 372]
HTT mRNA; [1]
  IC50: 100 to 1000 nM
HTT mRNA; RT-qPCR
  AC50: 100 to 1000 nM
HTT mRNA; [2]
  IC50: 100 to 1000 nM
HTT
  IC50: 100 to 1000 nM
MYB
  IC50: 100 to 1000 nM

## Cc1cn2cc(-c3cc(F)c4c(=O)n(C5CCOC5)cnc4c3)cc(C#N)c2n1 (stereo not shown) [Compound 366, 6-[5-fluoro-4-oxo-3-(oxolan-3-yl)quinazolin-7-yl]-2-methylimidazo[1,2-a]pyridine-8-carbonitrile]
HTT mRNA; [1]
  IC50: 1000 to 10000 nM
HTT mRNA; RT-qPCR
  AC50: 1000 to 10000 nM
HTT mRNA; [2]
  IC50: 1000 to 10000 nM
HTT
  IC50: 1000 to 10000 nM
MYB
  IC50: 1000 to 10000 nM

## Cc1cn2nc(-c3cc(Cl)c4c(=O)n(C5CCNCC5)ccc4c3)cc(C)c2n1 [Compound 390, 8-chloro-6-{2,8-dimethylimidazo[1,2-b]pyridazin-6-yl}-2-(piperidin-4-yl)isoquinolin-1-one; trifluoroacetaldehyde]
HTT mRNA; [1]
  IC50: < 100 nM
HTT mRNA; RT-qPCR
  AC50: < 100 nM
HTT mRNA; [2]
  IC50: < 100 nM
HTT
  IC50: < 100 nM
MYB
  IC50: < 100 nM

## Cc1nc2c(C)cc(-c3cc(F)c4c(=O)n(C5CCNC6(CC6)C5)ccc4c3)cc2o1 (stereo not shown) [Compound 418, 2-{4-azaspiro[2.5]octan-7-yl}-6-(2,4-dimethyl-1,3-benzoxazol-6-yl)-8-fluoroisoquinolin-1-one]
HTT mRNA; [1]
  IC50: < 100 nM
HTT mRNA; RT-qPCR
  AC50: < 100 nM
HTT mRNA; [2]
  IC50: < 100 nM
HTT
  IC50: < 100 nM
MYB
  IC50: < 100 nM

## Cn1cc2cc(-c3cc(F)c4c(=O)n(C5CCNC6(CC6)C5)ccc4c3)c(O)c(F)c2n1 (stereo not shown) [Compound 420, 2-{4-azaspiro[2.5]octan-7-yl}-8-fluoro-6-(7-fluoro-6-hydroxy-2-methylindazol-5-yl)isoquinolin-1-one]
HTT mRNA; [1]
  IC50: 1000 to 10000 nM
HTT mRNA; RT-qPCR
  AC50: 1000 to 10000 nM
HTT mRNA; [2]
  IC50: 1000 to 10000 nM
HTT
  IC50: 1000 to 10000 nM
MYB
  IC50: 100 to 1000 nM

## Cc1cn2cc(-c3cc(F)c4c(=O)n([C@H]5CCNC5)ccc4c3)cc(F)c2n1 (single isomer, unassigned) [Compound 396]
HTT mRNA; [1]
  IC50: 1000 to 10000 nM
HTT mRNA; RT-qPCR
  AC50: 1000 to 10000 nM
HTT mRNA; [2]
  IC50: 1000 to 10000 nM
HTT
  IC50: 100 to 1000 nM
MYB
  IC50: 100 to 1000 nM

## Cc1cn2cc(-c3cc(F)c4c(=O)n(C5CCNC5)ccc4c3)cc(C#N)c2n1 (stereo not shown) [Compound 434, 6-[8-fluoro-1-oxo-2-(pyrrolidin-3-yl)isoquinolin-6-yl]-2-methylimidazo[1,2-a]pyridine-8-carbonitrile]
HTT mRNA; [1]
  IC50: > 10000 nM
HTT mRNA; RT-qPCR
  AC50: > 10000 nM
HTT mRNA; [2]
  IC50: > 10000 nM
HTT
  IC50: > 10000 nM
MYB
  IC50: 1000 to 10000 nM

## Cc1cn2nc(-c3cc(F)c4c(=O)n(C5CCNC5)ccc4c3)cc(C)c2n1 (stereo in doubt) [Compound 382, (R)-6-(2,8-dimethylimidazo[1,2-b]pyridazin-6-yl)-8-fluoro-2-(pyrrolidin-3-yl)isoquinolin-1(2H)-one]
HTT mRNA; [1]
  IC50: 1000 to 10000 nM
HTT mRNA; RT-qPCR
  AC50: 1000 to 10000 nM
HTT mRNA; [2]
  IC50: 1000 to 10000 nM
HTT
  IC50: 1000 to 10000 nM
MYB
  IC50: 100 to 1000 nM

## Cc1cn2cc(-c3cc(F)c4c(=O)n([C@@H]5CCNC5)ccc4c3)cc(F)c2n1 (single isomer, unassigned) [Compound 395]
HTT mRNA; [1]
  IC50: 1000 to 10000 nM
HTT mRNA; RT-qPCR
  AC50: 1000 to 10000 nM
HTT mRNA; [2]
  IC50: 1000 to 10000 nM
HTT
  IC50: 100 to 1000 nM
MYB
  IC50: 100 to 1000 nM

## Cc1cn2cc(-c3ccc4c(=O)n(C5CCNC5)cc(C)c4c3)cc(F)c2n1 (stereo not shown) [Compound 441, 6-{8-fluoro-2-methylimidazo[1,2-a]pyridin-6-yl}-4-methyl-2-(pyrrolidin-3-yl)isoquinolin-1-one]
HTT mRNA; [1]
  IC50: > 10000 nM
HTT mRNA; RT-qPCR
  AC50: > 10000 nM
HTT mRNA; [2]
  IC50: > 10000 nM
HTT
  IC50: 1000 to 10000 nM
MYB
  IC50: 1000 to 10000 nM
